In ChEMBL document CHEMBL4342525, “Synthesis and Biochemical Evaluation of Noncyclic Nucleotide Exchange Proteins Directly Activated by cAMP 1 (EPAC1) Regulators” (J Med Chem, 2020):
pEC50, pIC50: −log10 of the molar value. Activity calls are given as the source filed them. The calls are words filed in the database; no cut-off is given here.

Tests used:
[1] = biological target: T1, Rap guanine nucleotide exchange factor 3 (Homo sapiens) (UniProt O95398); experiment: Binding affinity to GST-tagged recombinant EPAC1 CNBD (169 to 318 residues) (unknown origin) expressed in Escherichia coli BL21 Star (DE3) assessed as relative fluorescence intensity incubated for 4 hrs by 8-NBD-cAMP competition binding assay relative to control; parameters: concentration or dose not given beside the values
T1 sequence (whole entry): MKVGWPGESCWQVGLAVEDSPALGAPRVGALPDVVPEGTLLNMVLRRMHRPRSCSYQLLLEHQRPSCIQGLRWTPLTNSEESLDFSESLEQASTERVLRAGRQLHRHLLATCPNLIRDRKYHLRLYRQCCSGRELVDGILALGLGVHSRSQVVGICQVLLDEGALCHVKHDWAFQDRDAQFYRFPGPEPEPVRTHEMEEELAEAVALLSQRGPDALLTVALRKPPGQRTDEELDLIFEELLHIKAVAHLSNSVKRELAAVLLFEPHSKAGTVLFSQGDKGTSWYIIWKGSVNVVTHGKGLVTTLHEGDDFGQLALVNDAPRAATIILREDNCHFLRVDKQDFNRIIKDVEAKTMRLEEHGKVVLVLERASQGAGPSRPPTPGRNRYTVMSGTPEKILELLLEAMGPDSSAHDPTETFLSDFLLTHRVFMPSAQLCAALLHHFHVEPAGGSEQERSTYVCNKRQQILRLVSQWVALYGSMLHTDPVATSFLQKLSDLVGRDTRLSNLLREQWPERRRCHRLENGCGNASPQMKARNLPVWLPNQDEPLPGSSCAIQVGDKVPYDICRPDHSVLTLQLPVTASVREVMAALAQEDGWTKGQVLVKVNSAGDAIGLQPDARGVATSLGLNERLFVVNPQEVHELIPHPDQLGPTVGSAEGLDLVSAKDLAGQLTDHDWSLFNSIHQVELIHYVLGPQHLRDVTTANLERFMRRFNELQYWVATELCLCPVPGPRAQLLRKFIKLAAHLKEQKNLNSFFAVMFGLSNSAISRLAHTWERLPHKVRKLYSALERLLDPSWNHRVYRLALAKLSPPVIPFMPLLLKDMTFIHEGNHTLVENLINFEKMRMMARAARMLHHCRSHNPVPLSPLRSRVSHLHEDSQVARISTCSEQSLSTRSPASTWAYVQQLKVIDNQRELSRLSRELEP

[2] = biological target: T1, Rap guanine nucleotide exchange factor 3 (Homo sapiens); experiment: Activation of EPAC1 (unknown origin) expressed in U2OS cells at 100 uM incubated for 10 mins using GST-RalGDS-RBD by Western blot analysis based active GTP-bound Rap1 pull down assay; type: cell-based
[3] = Activation of PKA in human U2OS cells stably transfected with EPAC1 assessed as increase in VASP phosphorylation at 100 uM by Western blot analysis; type: cell-based
[4] = biological target: T2, Rap guanine nucleotide exchange factor 3 (Homo sapiens, UniProt O95398); experiment: Activation of recombinant EPAC1 (149 to 881 residues) (unknown origin) assessed as stimulation of dissociation of fluorescent MANT-GDP from recombinant Rap1b in presence of excess nonfluorescent nucleotides by fluorescence based in-vitro GEF assay
T2 sequence (O95398 whole entry): T1 sequence (whole entry)

[5] = biological target: T1, Rap guanine nucleotide exchange factor 3 (Homo sapiens); experiment: Activation of recombinant EPAC1 (149 to 881 residues) (unknown origin) assessed as stimulation of dissociation of fluorescent MANT-GDP from recombinant Rap1b at 10 uM in presence of excess nonfluorescent nucleotides by fluorescence based in-vitro GEF assay relative to cAMP
[6] = biological target: T1, Rap guanine nucleotide exchange factor 3 (Homo sapiens); experiment: Activation of recombinant EPAC1 (149 to 881 residues) (unknown origin) assessed as stimulation of dissociation of fluorescent MANT-GDP from recombinant Rap1b at 500 uM in presence of excess nonfluorescent nucleotides by fluorescence based in-vitro GEF assay relative to cAMP
[7] = biological target: T1, Rap guanine nucleotide exchange factor 3 (Homo sapiens); experiment: Activity at recombinant EPAC1 (149 to 881 residues) (unknown origin) assessed as reduction in cAMP-induced stimulation of dissociation of fluorescent MANT-GDP from recombinant Rap1b at 500 uM in presence of excess nonfluorescent nucleotides by fluorescence based in-vitro GEF assay
[8] = Binding affinity to GST-tagged recombinant EPAC1 delta-DEP mutant (149 to 881 residues) (unknown origin) expressed in Escherichia coli BL21 Star (DE3) incubated for 4 hrs by 8-NBD-cAMP competition binding assay; parameters: species or system Homo sapiens
[9] = biological target: T1, Rap guanine nucleotide exchange factor 3 (Homo sapiens); experiment: Activation of EPAC1 (unknown origin) expressed in U2OS cells at 100 uM pre-incubated for 10 mins before 8-pCPT-2'-O-Me-cAMP stimulation for 10 mins using GST-RalGDS-RBD by Western blot analysis based active GTP-bound Rap1 pull down assay; type: cell-based
[10] = biological target: T1, Rap guanine nucleotide exchange factor 3 (Homo sapiens); experiment: Activation of EPAC1 in HUVEC assessed as reduction in IL-6-promoted signaling by measuring ICAM1 protein expression at 100 uM pre-incubated for 30 mins before IL6 and sIL6Ralpha stimulation for 5 hrs by Western blotting analysis; type: cell-based
[11] = biological target: T2, Rap guanine nucleotide exchange factor 3; experiment: Binding affinity to GST-tagged recombinant EPAC1 CNBD (169 to 318 residues) (unknown origin) expressed in Escherichia coli BL21 Star (DE3) incubated for 4 hrs by 8-NBD-cAMP competition binding assay
[12] = biological target: T1, Rap guanine nucleotide exchange factor 3 (Homo sapiens); experiment: Activation of EPAC1 in HUVEC assessed as reduction in IL-6-promoted signaling by measuring SELE protein expression at 100 uM pre-incubated for 30 mins before IL6 and sIL6Ralpha stimulation for 5 hrs by Western blotting analysis; type: cell-based
[13] = biological target: T1, Rap guanine nucleotide exchange factor 3 (Homo sapiens); experiment: Activation of EPAC1 in HUVEC assessed as reduction in IL-6-promoted signaling by measuring pAKT protein levels at 100 uM pre-incubated for 30 mins before IL6 and sIL6Ralpha stimulation for 5 hrs by Western blotting analysis; type: cell-based
[14] = biological target: T1, Rap guanine nucleotide exchange factor 3 (Homo sapiens); experiment: Activation of EPAC1 in HUVEC assessed as reduction in IL-6-promoted signaling by measuring pERK protein levels at 100 uM pre-incubated for 30 mins before IL6 and sIL6Ralpha stimulation for 5 hrs by Western blotting analysis; type: cell-based
[15] = biological target: T1, Rap guanine nucleotide exchange factor 3 (Homo sapiens); experiment: Activation of EPAC1 in HUVEC assessed as reduction in IL-6-promoted signaling by measuring VCAM1 protein expression at 100 uM pre-incubated for 30 mins before IL6 and sIL6Ralpha stimulation for 5 hrs by Western blotting analysis; type: cell-based
[16] = biological target: T1, Rap guanine nucleotide exchange factor 3 (Homo sapiens); experiment: Activation of EPAC1 in HUVEC assessed as reduction in IL-6-promoted signaling by measuring pSTAT3 protein levels at 100 uM pre-incubated for 30 mins before IL6 and sIL6Ralpha stimulation for 5 hrs by Western blotting analysis; type: cell-based

| Compound | Activity [1] | further results |
| --- | --- | --- |
| COc1ccc(OC)c(S(=O)(=O)NC(=O)COc2ccc3ccc(OC)cc3c2)c1 | 49% | – |
| Cc1cc(C)c(S(=O)(=O)N2CCC(Oc3ccc4ccccc4c3)CC2)c(C)c1 | 105% | – |
| Cc1cc(C)c(S(=O)(=O)NC(=O)CN2CCN(c3ccccn3)CC2)c(C)c1 | 119% | – |
| Cc1ccc(S(=O)(=O)NC(=O)C(C)(C)Oc2ccc3ccccc3c2)c(C)c1 | 76% | – |
| Cc1cc(C)c(S(=O)(=O)NCCOc2ccc3ccccc3c2)c(C)c1 | 105% | – |
| Cc1cc(C)c(S(=O)(=O)NC(=O)CNc2cccc(Cl)c2)c(C)c1 | 88% | – |
| Cc1cc(C)c(S(=O)(=O)NC(=O)CSc2nc3ccccc3c(=O)[nH]2)c(C)c1 | 95% | – |
| Cc1cc(C)c(S(=O)(=O)NC(=O)CSc2ccc3ccccc3c2)c(C)c1 | 92% | – |
| Cc1cc(C)c(S(=O)(=O)NC(=O)CN2CCn3c(nnc3C(F)(F)F)C2)c(C)c1 | 104% | – |
| Cc1cc(C)c(S(=O)(=O)NC(=O)COc2ccc3c(c2)CCCC3)c(C)c1 | 77% | – |
| COc1cc2c(cc1OC)CN(CC(=O)NS(=O)(=O)c1c(C)cc(C)cc1C)CC2 | 102% | – |
| Cc1ccc(S(=O)(=O)NC(=O)COc2cccc3ccccc23)c(C)c1 | 71% | – |
| COc1ccc2ccc(OCC(=O)NS(=O)(=O)c3c(C)cc(C)cc3C)cc2c1 | 49% | – |
| Cc1cc(C)c(S(=O)(=O)NC(=O)CNc2ccc3ccccc3c2)c(C)c1 | 97% | – |
| Cc1cc(C)c(S(=O)(=O)NC(=O)C(F)Oc2ccc3ccccc3c2)c(C)c1 (stereo not given) | 82% | – |
| Cc1cc(C)c(S(=O)(=O)NC(=O)CN2CCc3ccccc3C2)c(C)c1 | 102% | – |
| Cc1cc(C)c(S(=O)(=O)NC(=O)COc2ccc3c(c2)NC(=O)CC3)c(C)c1 | 77% | – |
| CC(=O)c1c(OCC(=O)NS(=O)(=O)c2c(C)cc(C)cc2C)ccc2ccccc12 | 104% | – |
| Cc1ccc(S(=O)(=O)NCCOc2ccc3ccccc3c2)c(C)c1 | 81% | – |
| COc1ccc2ccc(OCC(=O)NS(=O)(=O)c3ccc(OC)c(OC)c3)cc2c1 | 23% | – |
| Cc1ccc(S(=O)(=O)NC(=O)COc2ccc3[nH]ncc3c2)c(C)c1 | 94% | – |
| Cc1ccc(S(=O)(=O)NC(=O)COc2ccc3[nH]ccc3c2)c(C)c1 | 91% | – |
| Cc1cc(Nc2ccc(C(F)(F)F)cn2)cc(S(=O)(=O)NC(=O)COc2ccc3ccccc3c2)c1 | 20% | – |
| Cc1cc(C)c(S(=O)(=O)NC(=O)COc2ccc3cccnc3c2)c(C)c1 | 92% | – |
| COc1ccc2ccc(OCC(=O)NS(=O)(=O)c3ccc([N+](=O)[O-])cc3OC)cc2c1 | 24% | – |
| Cc1cc(C)c(S(=O)(=O)NC(=O)COc2cccc3ccccc23)c(C)c1 | 94% | – |

Second part, led by results:

| Activity [1] | Compound | further results |
| --- | --- | --- |
| 36% | Cc1cc(-c2cncc(F)c2)cc(S(=O)(=O)NC(=O)COc2ccc3ccccc3c2)c1 | – |
| 55% | Cc1ccc(S(=O)(=O)NC(=O)COc2ccc3cc(F)ccc3c2)c(C)c1 | – |
| 35% | O=C(COc1ccc2ccccc2c1)NS(=O)(=O)c1cccc(-c2ccccc2)c1 | – |
| 23% | COc1ccc(S(=O)(=O)NC(=O)COc2ccc3ccccc3c2)c(OC)c1 | Activity [2]: Active; Activity [3]: Not Active; pEC50 [4]: 5.30; Activity [5]: Active; Activity [6]: 2%; Activity [7]: Active; pIC50 [8]: 5.31; Activity [9]: Active |
| 29% | COc1ccc2ccc(OCC(=O)NS(=O)(=O)c3cc(C)cc(Br)c3)cc2c1 | – |
| 66% | Cc1ccc(S(=O)(=O)NC(=O)COc2ccc3ccc(Cl)cc3c2)c(C)c1 | – |
| 38% | Cc1cc(C)cc(S(=O)(=O)NC(=O)COc2ccc3ccccc3c2)c1 | – |
| 34% | Cc1cc(-c2ccnn2C)cc(S(=O)(=O)NC(=O)COc2ccc3ccccc3c2)c1 | – |
| 33% | COc1cccc(S(=O)(=O)NC(=O)COc2ccc3ccccc3c2)c1 | – |
| 49% | O=C(COc1ccc2ccccc2c1)NS(=O)(=O)c1ccccc1 | – |
| 50% | Cc1ccc(S(=O)(=O)NC(=O)COc2ccc3cc(Cl)ccc3c2)c(C)c1 | – |
| 81% | O=C(COc1ccc2ccccc2c1)NS(=O)(=O)C1CCCCC1 | – |
| 44% | Cc1ccc(S(=O)(=O)NC(=O)COc2ccc3ccccc3c2)cc1 | – |
| 50% | COc1ccc(S(=O)(=O)NC(=O)COc2ccc3ccccc3c2)cc1OC | – |
| 81% | Cc1cc(C)c(S(=O)(=O)NC(=O)COc2ccc3ccccc3c2)c(C)c1 | – |
| 81% | O=C(COc1ccc2ccccc2c1)NS(=O)(=O)c1ccc([N+](=O)[O-])c(F)c1 | Activity [10]: inactive; Activity [2]: Active; pIC50 [11]: 4.49; Activity [12]: inactive; Activity [13]: inactive; Activity [3]: Not Active; Activity [14]: inactive; Activity [5]: Active; Activity [15]: inactive; Activity [16]: inactive |
| 69% | O=C(COc1ccc2ccccc2c1)NS(=O)(=O)c1ccccc1F | – |
| 71% | COC(=O)c1cccc(S(=O)(=O)NC(=O)COc2ccc3ccccc3c2)c1 | – |
| 82% | O=C(COc1ccc2ccccc2c1)NS(=O)(=O)c1cccc(F)c1 | – |
| 54% | COc1ccc2ccc(OCC(=O)NS(=O)(=O)c3cc(Cl)cc(Cl)c3)cc2c1 | – |
| 40% | Cc1cc(-c2ccco2)cc(S(=O)(=O)NC(=O)COc2ccc3ccccc3c2)c1 | – |
| 72% | COc1ccc(OC)c(S(=O)(=O)NC(=O)COc2ccc3ccccc3c2)c1 | – |
| 53% | O=C(COc1ccc2ccccc2c1)NS(=O)(=O)c1cccc(-c2ccoc2)c1 | – |
| 81% | O=C(COc1ccc2ccccc2c1)NS(=O)(=O)c1ccc(F)cc1 | – |
| 67% | O=C(COc1ccc2ccccc2c1)NS(=O)(=O)c1cccc([N+](=O)[O-])c1 | – |
| 58% | Cc1cc(Br)cc(S(=O)(=O)NC(=O)COc2ccc3ccccc3c2)c1 | – |
| inactive | Nc1ccc(S(=O)(=O)NC(=O)COc2ccc3ccccc3c2)cc1F | Activity [10]: inactive; Activity [2]: Active; Activity [12]: inactive; Activity [13]: inactive; Activity [3]: Not Active; Activity [14]: inactive; Activity [5]: Active; Activity [15]: inactive; Activity [16]: inactive |
